Results on 21 compounds are retold here after patent US20250270222A1, “AP2 ASSOCIATED KINASE 1 INHIBITORS AND USES THEREOF” (Satellos Bioscience Inc., priority 2023, published 2025).

Each structure is given as a SMILES string.

In experiment [1] the target is AAK1 (amino acids T27-A365) (Homo sapiens (Human), UniProt Q2M2I8). Kind of experiment: AAK1 pSENs assay. Format: biochemical. The conditions noted are these: ratio of AAK1 pSENs activity to GAK pSENs activity. Here is the method: (§1) The recombinant proteins were independently expressed in Esherichia coli BL21(DE3) cells cultured in Luria-Bertani (LB) medium until OD600 reached 0.6-0.8, then cooled to 15° C., and supplemented with 0.5 mM isopropyl 1-thio-D-galactopyranoside (IPTG) induce protein expression 16 h. Cells were harvested and resuspended in lysis buffer (50 mM HEPES pH 7.5, 500 mM NaCl, 5 mM imidazole, 5% glycerol, 0.5 mM Tris (2-carboxyethyl) phosphine (TCEP), cOmplete Protease Inhibitor Tablet (Roche)) and lysed by microfluidics high pressure homogenizer (UH-06, Union-Biotech). Proteins were purified using Ni-Affinity chromatography (His FF column, Bestchrom) and eluted stepwise in binding buffer with 20-300 mM imidazole. Removal of the hexahistidine tag was performed at 4° C. overnight using recombinant TEV protease and reacted with BirA to obtain the corresponding biotinylated-AAK1. BIKE or GAK proteins. Further separated in the reverse Strep column (Strep-Tactin® XT, IBA). The Biotin elution sample was collected containing untagged biotinylated protein was then purified by Ion-exchange chromatography (Mono Q 10/100 GL, Cytiva) and Size-exclusion chromatography (HiLoad 16/600 Superdex 200 pg, Cytiva). The pure protein was stored in a storage buffer 50 mM HEPES (pH 7.5), 300 mM NaCl, 5% glycerol at −80° C. Protein were characterized by SDS-PAGE. LC-MS and aSEC.
Chain of AAK1 (amino acids T27-A365) (Q2M2I8 27-365): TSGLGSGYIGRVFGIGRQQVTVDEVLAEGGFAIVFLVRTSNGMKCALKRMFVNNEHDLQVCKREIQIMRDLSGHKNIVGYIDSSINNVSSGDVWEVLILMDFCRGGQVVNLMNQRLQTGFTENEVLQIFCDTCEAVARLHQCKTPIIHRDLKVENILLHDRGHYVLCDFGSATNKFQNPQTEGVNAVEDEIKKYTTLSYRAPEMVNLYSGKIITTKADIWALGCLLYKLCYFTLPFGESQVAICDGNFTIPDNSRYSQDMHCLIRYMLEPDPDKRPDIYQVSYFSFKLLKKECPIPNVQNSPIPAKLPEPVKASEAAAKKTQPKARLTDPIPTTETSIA
This example describes one illustrative method for determining the IC50 of the compounds of the present invention against AAK1 (amino acids T27-A365). AAK1 protein was dissolved at 20 nM in 1× enzyme solution (50 mM HEPES pH7.5, 10 mM MgCl2, 1 mM DTT, 1% glycerol, 0.5 mM EGTA, 0.01% Briji35, 0.02% BSA) and 12.5 ul was incubated with 250 nl DMSO or 250 nl compound in DMSO at 25° C. for 15 min. The reaction was started by addition of 12.5 ul of 30 uM AQT0759 (Assayquant, CSKS-AQT0759B) and 70 uM ATP which were diluted in 1× substrate dilution buffer (50 mM HEPES pH7.5, 10 mM MgCl2, 1 mM DTT, 1% glycerol, 0.5 mM EGTA, 0.01% Briji35).

Experiment [2] has as its target GAK (amino acids Q25-N335) (Homo sapiens (Human), UniProt O14976). The experiment in a line: GAK pSENs assay. Format: biochemical. Here is the method: as §1
This example describes one illustrative method for determining the IC50 of the compounds of the present invention against GAK (amino acids Q25-N335).

Chain of GAK (amino acids Q25-N335) (O14976 25-335): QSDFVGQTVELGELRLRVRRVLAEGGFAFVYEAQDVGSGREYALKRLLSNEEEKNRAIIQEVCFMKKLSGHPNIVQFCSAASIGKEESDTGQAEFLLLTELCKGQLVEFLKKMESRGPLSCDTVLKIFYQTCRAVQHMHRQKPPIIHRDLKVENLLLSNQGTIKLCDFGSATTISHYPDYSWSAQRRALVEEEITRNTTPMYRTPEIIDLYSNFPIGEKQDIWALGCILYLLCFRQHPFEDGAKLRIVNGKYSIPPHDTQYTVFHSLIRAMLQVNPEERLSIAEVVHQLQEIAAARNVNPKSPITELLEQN

A word on the IC50: it is the midpoint of a concentration-inhibition curve. High values mean lower potency, low ones higher potency. Regarding `O=C1C[C@H](OC(=O)N2CCN(c3ccn4ncc(-c5cccnc5OC5CC5)c4n3)CC2)CN1` [Compound I-11, [(3S)-5-Oxopyrrolidin-3-yl]-4-[3-[2-(cyclopropoxy)-3-pyridyl]pyrazolo[1,5-a]pyrimidin-5-yl]piperazine-1-carboxylate hydrochloric acid], the “AAK1:GAK pSENs Selectivity” value in experiment [1] is recorded as “A (A: ≤0.015)”. In experiment [2], this compound gave an IC50 of more than 1500 nM.

With `COC(=O)N1CC(Oc2ncccc2-c2cnn3ccc(NCCN(C)C(=O)OC(C)(C)C)nc23)C1` [Compound I-64], the “AAK1:GAK pSENs Selectivity” value in experiment [1] is “A (A: ≤0.015)”. Also, the IC50 in experiment [2] was more than 1500 nM.

On to `C[C@@]1(OC(=O)N2CCN(c3ccn4ncc(-c5cccnc5OC5CC5)c4n3)CC2)CCN(CCO)C1` [Compound I-52, [(3R)-1-(2-hydroxyethyl)-3-methyl-pyrrolidin-3-yl]-4-[3-[2-(cyclopropoxy)-3-pyridyl]pyrazolo[1,5-a]pyrimidin-5-yl]piperazine-1-carboxylate], for which, in experiment [1], the “AAK1:GAK pSENs Selectivity” value is “A (A: ≤0.015)”. The compound also came in with a 50% inhibitory concentration (IC50) in experiment [2] of more than 1500 nM.

With `CN1C[C@@H](OC(=O)N2CCN(c3nc4c(-c5cccnc5OC5CCOC5)cnn4cc3F)CC2)CC1=O` (stereo partly drawn) [Compound I-120, [(3S)-1-methyl-5-oxo-pyrrolidin-3-yl]4-[6-fluoro-3-(2-tetrahydrofuran-3-yloxy-3-pyridyl)pyrazolo[1,5-a]pyrimidin-5-yl]piperazine-1-carboxylate], the “AAK1:GAK pSENs Selectivity” value in experiment [1] is given as “B (B: 0.016-0.075)”. The compound further showed an IC50 in experiment [2] of more than 1500 nM.

As for `CC(C)(C)OC(=O)N1CC(Oc2ncccc2-c2cnn3ccc(N4CCN(C(=O)O[C@@H]5CNC(=O)C5)CC4)nc23)C1` [Compound I-42, [(3S)-5-Oxopyrrolidin-3-yl]4-[3-[2-(1-tert-butoxycarbonylazetidin-3-yl)oxy-3-pyridyl]pyrazolo[1,5-a]pyrimidin-5-yl]piperazine-1-carboxylate], the “AAK1:GAK pSENs Selectivity” value in experiment [1] is “A (A: ≤0.015)”. In addition, the IC50 in experiment [2] is more than 1500 nM.

On to `COc1ncccc1-c1cnn2ccc(N3CCN(C(=O)O[C@H]4CO[C@H]5OCC[C@H]54)CC3)nc12` [Compound I-65, (3R,3aS,6aR)-hexahydrofuro[2,3-b]furan-3-yl 4-(3-(2-methoxypyridin-3-yl)pyrazolo[1,5-a]pyrimidin-5-yl)piperazine-1-carboxylate], for which the “AAK1:GAK pSENs Selectivity” value in experiment [1] was “A (A: ≤0.015)”. Further, the IC50 in experiment [2] is more than 1500 nM.

For `COC(=O)N1CC(Oc2ncccc2-c2cnn3ccc(N4CCN(C(=O)O[C@@H]5CNC(=O)C5)CC4)nc23)C1` [Compound I-58, [(3S)-5-oxopyrrolidin-3-yl]-4-[3-[2-(1-methoxycarbonylazetidin-3-yl)oxy-3-pyridyl]pyrazolo[1,5-a]pyrimidin-5-yl]piperazine-1-carboxylate], in experiment [1], the “AAK1:GAK pSENs Selectivity” value was “A (A: ≤0.015)”. For the same compound, the IC50 in experiment [2] is more than 1500 nM.

Consider `CN1C[C@@H](OC(=O)N2CCN(c3nc4c(-c5cccnc5OC5CCCC5)cnn4cc3F)CC2)CC1=O` [Compound I-121, [(3S)-1-methyl-5-oxo-pyrrolidin-3-yl]-4-[3-[2-(cyclopentoxy)-3-pyridyl]-6-fluoro-pyrazolo[1,5-a]pyrimidin-5-yl]piperazine-1-carboxylate], for which, in experiment [1], the “AAK1:GAK pSENs Selectivity” value is given as “B (B: 0.016-0.075)”. The compound further had an IC50 in experiment [2] of more than 1500 nM.

On to `COCCN1C[C@@H](OC(=O)N2CCN(c3ccn4ncc(-c5cccnc5OC5CC5)c4n3)CC2)CC1=O` [Compound I-115, [(3S)-1-(2-methoxyethyl)-5-oxo-pyrrolidin-3-yl]-4-[3-[2-(cyclopropoxy)-3pyridyl]pyrazolo[1,5-a]pyrimidin-5-yl]piperazine-1-carboxylate], for which the “AAK1:GAK pSENs Selectivity” value in experiment [1] is listed as “A (A: ≤0.015)”. In addition, the IC50 in experiment [2] was more than 1500 nM.

As to `[2H]C([2H])([2H])N1C[C@@H](OC(=O)N2CCN(c3nc4c(-c5cc(F)cnc5OC5CC5)cnn4cc3F)CC2)CC1=O` [Compound I-118, [(3S)-5-oxo-1-(trideuteriomethyl)pyrrolidin-3-yl]4-[3-[2-(cyclopropoxy)-5-fluoro-3-pyridyl]-6-fluoro-pyrazolo[1,5-a]pyrimidin-5-yl]piperazine-1-carboxylate], the “AAK1:GAK pSENs Selectivity” value in experiment [1] is listed as “A (A: ≤0.015)”. Moreover, the IC50 in experiment [2] is more than 1500 nM.

Take `O=C1C[C@@H](OC(=O)N2CCN(c3ccn4ncc(-c5cccnc5OC5CC5)c4n3)CC2)CN1` [Compound I-10, [(3R)-5-Oxopyrrolidin-3-yl]-4-[3-[2-(cyclopropoxy)-3-pyridyl]pyrazolo[1,5-a]pyrimidin-5-yl]piperazine-1-carboxylate]: the “AAK1:GAK pSENs Selectivity” value in experiment [1] was “A (A: ≤0.015)”. Also, in experiment [2], the IC50 is more than 1500 nM.

Consider `COc1ncccc1-c1cnn2ccc(N3CCN(C(=O)OC4CNC(=O)C4)CC3)nc12` (stereo not drawn) [Compound I-6, (5-Oxopyrrolidin-3-yl) 4-[3-(2-methoxy-3-pyridyl)pyrazolo[1,5-a]pyrimidin-5-yl]piperazine-1-carboxylate], for which, in experiment [1], the “AAK1:GAK pSENs Selectivity” value is “A (A: ≤0.015)”. This compound yielded a concentration for half-maximal inhibition (IC50) in experiment [2] of more than 1500 nM.

Consider `COC(=O)N1CC(Oc2ncccc2-c2cnn3ccc(N4CCN(C(=O)O[C@@H]5CC(=O)N(CCO)C5)CC4)nc23)C1` [Compound I-84, [(3R)-1-(2-hydroxyethyl)-5-oxo-pyrrolidin-3-yl]4-[3-[2-(1-methoxycarbonylazetidin-3-yl)oxy-3-pyridyl]pyrazolo[1,5-a]pyrimidin-5-yl]piperazine-1-carboxylate], for which, in experiment [1], the “AAK1:GAK pSENs Selectivity” value is “B (B: 0.016-0.075)”. Moreover, the IC50 in experiment [2] was more than 1500 nM.

As to `CC(C)N1C[C@@H](OC(=O)N2CCN(c3ccn4ncc(-c5cccnc5OC5CC5)c4n3)CC2)CC1=O` [Compound I-114, [(3S)-1-isopropyl-5-oxo-pyrrolidin-3-yl]-4-[3-[2-(cyclopropoxy)-3-pyridyl]pyrazolo[1,5-a]pyrimidin-5-yl]piperazine-1-carboxylate], the “AAK1:GAK pSENs Selectivity” value in experiment [1] is recorded as “B (B: 0.016-0.075)”. For the same compound, the IC50 in experiment [2] was more than 1500 nM.

For the compound `[2H]C([2H])([2H])N1C[C@@H](OC(=O)N2CCN(c3ccn4ncc(-c5cccnc5OC5CC5)c4n3)CC2)CC1=O` [Compound I-113, [(3S)-5-oxo-1-(trideuteriomethyl)pyrrolidin-3-yl]4-[3-[2-(cyclopropoxy)-3-pyridyl]pyrazolo[1,5-a]pyrimidin-5-yl]piperazine-1-carboxylate], the “AAK1:GAK pSENs Selectivity” value in experiment [1] is “A (A: ≤0.015)”. In experiment [2], this compound gave an IC50 of more than 1500 nM.

For the compound `O=C(O[C@H]1CC(=O)N(C2CCNCC2)C1)N1CCN(c2ccn3ncc(-c4cccnc4OC4CC4)c3n2)CC1` [Compound I-32, [(3S)-5-Oxo-1-(4-piperidyl)pyrrolidin-3-yl]4-[3-[2-(cyclopropoxy)-3-pyridyl]pyrazolo[1,5-a]pyrimidin-5-yl]piperazine-1-carboxylate], the “AAK1:GAK pSENs Selectivity” value in experiment [1] was “A (A: ≤0.015)”. In experiment [2], the 50% inhibitory concentration (IC50) is more than 1500 nM.

With `CN1C[C@@H](OC(=O)N2CCN(c3nc4c(-c5cccnc5OC5CCOCC5)cnn4cc3F)CC2)CC1=O` [Compound I-122], in experiment [1], the “AAK1:GAK pSENs Selectivity” value is listed as “A (A: ≤0.015)”. Further, the half-inhibitory concentration (IC50) in experiment [2] was more than 1500 nM.

As to `O=C(O[C@H]1CO[C@H]2OCC[C@H]21)N1CCN(c2ccn3ncc(-c4cccnc4OC4CC4)c3n2)CC1` [Compound I-27, [(3aS,4R,6aR)-2,3,3a, 4,5,6a-hexahydrofuro[2,3-b]furan-4-yl]-4-[3-[2-(cyclopropoxy)-3-pyridyl]pyrazolo[1,5-a]pyrimidin-5-yl]piperazine-1-carboxylate], in experiment [1], the “AAK1:GAK pSENs Selectivity” value is “A (A: ≤0.015)”. This compound also returned an IC50 in experiment [2] of more than 1500 nM.

As for `COc1ccccc1-c1cnn2ccc(N3CCN(C(=O)O[C@H]4CO[C@H]5OCC[C@H]54)CC3)nc12` [Compound I-69, (3R,3aS,6aR)-hexahydrofuro[2,3-b]furan-3-yl 4-(3-(2-methoxyphenyl)pyrazolo[1,5-a]pyrimidin-5-yl)piperazine-1-carboxylate], the “AAK1:GAK pSENs Selectivity” value in experiment [1] is recorded as “A (A: ≤0.015)”. Also, the 50% inhibitory concentration (IC50) in experiment [2] was more than 1500 nM.

Take `COCCN1C[C@@H](OC(=O)N2CCN(c3ccn4ncc(-c5cc(F)cnc5OC5CC5)c4n3)CC2)CC1=O` [Compound I-89]: the “AAK1:GAK pSENs Selectivity” value in experiment [1] is recorded as “A (A: ≤0.015)”. The same compound registered an IC50 in experiment [2] of more than 1500 nM.

On to `O=C1C[C@H](OC(=O)N2CCN(c3ccn4ncc(-c5cccnc5OC5CC5)c4n3)CC2)CN1CCO` [Compound I-38, [(3S)-1-(2-Hydroxyethyl)-5-oxo-pyrrolidin-3-yl]-4-[3-[2-(cyclopropoxy)-3-pyridyl]pyrazolo[1,5-a]pyrimidin-5-yl]piperazine-1-carboxylate], for which the “AAK1:GAK pSENs Selectivity” value in experiment [1] is given as “A (A: ≤0.015)”. This compound came in with a concentration for half-maximal inhibition (IC50) in experiment [2] of more than 1500 nM.
